Patent US20180318311A1, “TRICYCLIC 2-QUINOLINONES AS ANTIBACTERIALS” (priority 2017, published 2018)
Values after ≈ are worked out from the molar mass of the structure shown. Counter-ions that a name gives are not always drawn. Like-named read-outs stand apart in the source and are kept apart here.

Assays:
Type in all cases: cell-based
[1] = system: S. pneumoniae ATCC 25922 (NB07001); assay: MIC by broth microdilution, S. pneumoniae NB07001; conditions: Streptococcus pneumoniae, read-out: Antibacterial activity (MIC) NB07001
Outline: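 CLSI broth microdilution in CAMHB, inoculum ~5×10^5 CFU/mL, two-fold compound dilutions at 1% final DMSO. Plates incubated 20 h at 35°C in ambient air; MIC (μg/mL) is the lowest concentration preventing visible growth, confirmed by OD600.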

[2] = system: P. aeruginosa NB52019, wild-type PAO1 strain; assay: MIC by broth microdilution, P. aeruginosa NB52019; conditions: Pseudomonas aeruginosa, CAMHB, 35° C., 20 hours, read-out: Antibacterial activity (MIC) NB52019
Outline: (§1)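 MIC in μg/mL taken as the lowest concentration with no visible growth, checked by 600 nm reading after 20 h at 35°C, ambient air. Strains tested per CLSI microdilution in cation-adjusted Mueller-Hinton broth at about 5×10^5 CFU/mL, compounds as two-fold series, 1% DMSO final.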

[3] = system: E. coli ATCC 25922 (NB27001); assay: MIC by broth microdilution, E. coli NB27001; conditions: Escherichia coli, ATCC25922, CAMHB, 35° C., 20 hours, read-out: Antibacterial activity (MIC) NB27001
Outline: as §1

[4] = system: S. aureus NB01080 fluoroquinolone-resistant clinical isolate; assay: MIC by broth microdilution, S. aureus NB01080; conditions: Staphylococcus aureus, CAMHB, 35° C., 20 hours, read-out: Antibacterial activity (MIC) NB01080
Outline: as §1

[5] = system: S. aureus ATCC 49951 (NB01006); assay: MIC by broth microdilution, S. aureus NB01006; conditions: Staphylococcus aureus, ATCC49951, CAMHB, 35° C., 20 hours, read-out: Antibacterial activity (MIC) NB01006
Outline: as §1

[6] = system: E. faecalis ATCC 29212 (NB04001); assay: MIC by broth microdilution, E. faecalis NB04001; conditions: Enterococcus faecalis, ATCC29212, CAMHB, 35° C., 20 hours, read-out: Antibacterial activity (MIC) NB04001
Outline: as §1

[7] = system: S. aureus NB01006-AVR005, gyrA (S84L), grlA (580F) and grlB (E471K); assay: microbe, parasite or virus in culture; conditions: Staphylococcus aureus, 20 h, read-out: Antibacterial activity (MIC) NB01006-AVR005
Outline: as §1

| Compound | MIC ([1]; ATCC25922, 20 h) [µg/mL] | MIC [2] [µg/mL] | MIC [3] [µg/mL] | MIC [4] [µg/mL] | MIC [5] [µg/mL] | MIC [6] [µg/mL] | MIC [7] [µg/mL] | MIC ([1]; ATCC25922, S. pneumoniae, CAMHB supplemented with 5% lysed horse blood, 35° C., 20 hours) [µg/mL] |
| --- | --- | --- | --- | --- | --- | --- | --- | --- |
| C[C@H]1COc2c(N3CCNC4(CC3)CC4)c(F)cc3cc(C(=O)O)c(=O)n1c23 [Example 1.55, (S)-9-fluoro-3-methyl-5-oxo-10-(4,7-diazaspiro[2.6]nonan-7-yl)-2,3-dihydro-5H-[1,4]oxazino[2,3,4-ij]quinoline-6-carboxylic acid] | 1 to 32 (≈ 2.58 to 82.6 µM) | > 32 | 1 to 32 (≈ 2.58 to 82.6 µM) | 1 to 32 (≈ 2.58 to 82.6 µM) | 1 to 32 (≈ 2.58 to 82.6 µM) | 1 to 32 (≈ 2.58 to 82.6 µM) | > 32 | – |
| C[C@H]1COc2c(N3CC[C@@H](C4(N)CC4)C3)c(F)c(Cl)c3cc(C(=O)O)c(=O)n1c23 [Example 19.1, (S)-10-((R)-3-(1-aminocyclopropyl)pyrrolidin-1-yl)-8-chloro-9-fluoro-3-methyl-5-oxo-2,3-dihydro-5H-[1,4]oxazino[2,3,4-ij]quinoline-6-carboxylic acid formate salt] | < 1 | > 32 | 1 to 32 | < 1 | < 1 | < 1 | < 1 | – |
| CNC[C@@H]1CCN(c2c(F)cc3cc(C(=O)O)c(=O)n4c3c2OC[C@@H]4C)C1 [Example 1.41, (S)-9-fluoro-3-methyl-10-((S)-3-((methylamino)methyl)pyrrolidin-1-yl)-5-oxo-2,3-dihydro-5H-[1,4]oxazino[2,3,4-ij]quinoline-6-carboxylic acid] | < 1 | > 32 | 1 to 32 (≈ 2.66 to 85.2 µM) | 1 to 32 (≈ 2.66 to 85.2 µM) | < 1 | 1 to 32 (≈ 2.66 to 85.2 µM) | 1 to 32 (≈ 2.66 to 85.2 µM) | – |
| C[C@H]1COc2c(N3CC4CC4(N)C3)c(F)cc3cc(C(=O)O)c(=O)n1c23 (stereo partly drawn) [Example 1.3, (3S)-10-(1-amino-3-azabicyclo[3.1.0]hexan-3-yl)-9-fluoro-3-methyl-5-oxo-2,3-dihydro-5H-[1,4]oxazino[2,3,4-ij]quinoline-6-carboxylic acid] | 1 to 32 (≈ 2.78 to 89 µM) | > 32 | 1 to 32 (≈ 2.78 to 89 µM) | 1 to 32 (≈ 2.78 to 89 µM) | < 1 | 1 to 32 (≈ 2.78 to 89 µM) | 1 to 32 (≈ 2.78 to 89 µM) | – |
| C[C@H]1COc2c(N3CCC(=C(Cl)CO)CC3)c(F)cc3cc(C(=O)O)c(=O)n1c23 [Example 1.8, (S)-10-(4-(1-chloro-2-hydroxyethylidene)piperidin-1-yl)-9-fluoro-3-methyl-5-oxo-2,3-dihydro-5H-[1,4]oxazino[2,3,4-ij]quinoline-6-carboxylic acid] | < 1 | > 32 | > 32 | < 1 | < 1 | < 1 | 1 to 32 (≈ 2.36 to 75.7 µM) | – |
| C[C@H]1COc2c(N3CC[C@@H](C4(N)CC4)C3)c(F)cc3cc(C(=O)O)c(=O)n1c23.Cl [Example 1.1, (S)-10-((R)-3-(1-aminocyclopropyl)pyrrolidin-1-yl)-9-fluoro-3-methyl-5-oxo-2,3-dihydro-5H-[1,4]oxazino[2,3,4-ij]quinoline-6-carboxylic acid hydrochloride salt] | – | > 32 | 1 to 32 | < 1 | < 1 | < 1 | 1 to 32 | < 1 |
| C[C@H](N)[C@@H]1CCN(c2c(F)cc3cc(C(=O)O)c(=O)n4c3c2OC[C@@H]4C)C1 [Example 1.5, (S)-10-((R)-3-((S)-1-aminoethyl)pyrrolidin-1-yl)-9-fluoro-3-methyl-5-oxo-2,3-dihydro-5H-[1,4]oxazino[2,3,4-ij]quinoline-6-carboxylic acid] | < 1 | 1 to 32 (≈ 2.66 to 85.2 µM) | 1 to 32 (≈ 2.66 to 85.2 µM) | < 1 | < 1 | < 1 | 1 to 32 (≈ 2.66 to 85.2 µM) | – |
| CCc1c(F)c(N2CC[C@@H](C3(N)CC3)C2)c2c3c1cc(C(=O)O)c(=O)n3[C@@H](C)CO2 [Example 23, (S)-10-((R)-3-(1-aminocyclopropyl)pyrrolidin-1-yl)-8-ethyl-9-fluoro-3-methyl-5-oxo-2,3-dihydro-5H-[1,4]oxazino[2,3,4-ij]quinoline-6-carboxylic acid] | 1 to 32 (≈ 2.41 to 77 µM) | > 32 | > 32 | 1 to 32 (≈ 2.41 to 77 µM) | 1 to 32 (≈ 2.41 to 77 µM) | 1 to 32 (≈ 2.41 to 77 µM) | > 32 | – |
